From patent publication US20210038577A1, “THIOREDOXIN REDUCTASE INHIBITORS FOR USE IN THE TREATMENT OF CANCER” (Cinda Pharma AB, priority 2018, published 2021)

Experiments:
GR from baker's yeast = target: T1, GR from baker's yeast (Saccharomyces cerevisiae, UniProt P41921); test: Glutathione reductase (GR) activity assay; assay type: biochemical; details: Molar concentration
T1 sequence (P41921 17-483 limits assumed): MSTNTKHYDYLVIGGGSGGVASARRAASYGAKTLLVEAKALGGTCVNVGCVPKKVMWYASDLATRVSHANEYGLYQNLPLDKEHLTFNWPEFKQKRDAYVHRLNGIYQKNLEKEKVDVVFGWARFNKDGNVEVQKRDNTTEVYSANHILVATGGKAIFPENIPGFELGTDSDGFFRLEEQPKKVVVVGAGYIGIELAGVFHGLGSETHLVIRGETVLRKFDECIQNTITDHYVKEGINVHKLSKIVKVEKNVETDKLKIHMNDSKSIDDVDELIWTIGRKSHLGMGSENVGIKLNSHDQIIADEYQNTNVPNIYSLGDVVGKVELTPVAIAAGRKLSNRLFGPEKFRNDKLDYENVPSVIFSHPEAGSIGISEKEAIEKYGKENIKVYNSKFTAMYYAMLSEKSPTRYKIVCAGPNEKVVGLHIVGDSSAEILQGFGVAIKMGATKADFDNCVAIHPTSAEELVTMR
Protocol: GR activity was determined incubating compounds at various concentrations with GR from baker's yeast and 250 μM NADPH for 15 minutes, whereupon 10 mM oxidized glutathione (GSSG) was added to each well and NADPH consumption was followed at OD340. Activity was determined following the consumption of NADPH over time and normalized to DMSO only (Vehicle) and GR lacking (blank) controls.

MDA-MB-231 xenografts = test: MDA-MB-231 xenograft tumor growth in immunodeficient athymic nude mice; assay type: in vivo; details: for final tumor volumes versus vehicle (waterfall plot): end of experiment (22 days OT-1000, 25 days OT-1129); for TGI: 12 doses
Protocol: Athymic nude mice were inoculated orthotopically with 5×10^6 MDA-MB-231 breast cancer cells into the mammary fat pad, and randomized for treatment when tumors reached an average volume of 80-120 mm^3 (N=12 in each group). […] Xenograft tumor volume was assessed using caliper measurements for 22 days. Athymic nude mouse model is described by Richmond A, and Su Y., Disease Models & Mechanisms. 2008; 1(2-3):78-82.
Athymic nude mice were inoculated orthotopically with 5×10^6 MDA-MB-231 breast cancer cells into the mammary fat pad, and randomized for treatment when tumors reached an average volume of 80-120 mm^3 (N=12 in each group). […] Xenograft tumor volume was assessed using caliper measurements for 25 days. MDA-MB-231 Xenograft Tumor Growth in Immunodeficient Athymic Nude Mice Treated with OT-1096 or Vehicle Control. Athymic nude mice were inoculated orthotopically with 5×10^6 MDA-MB-231 breast cancer cells into the mammary fat pad and randomized for treatment when tumors reached an average volume of 80-120 mm^3 (N=12 in each group). Mice were treated with 10 mg/kg OT-1096 via i.v. injection or with vehicle i.v., once a day using a 5 day on two day off (5/2) dosing regimen for the duration of the experiment. Xenograft tumor volume was assessed using caliper measurements for 25 days. Data is represented as mean tumor volume±SEM. Statistical significance (p<0.05) was determined using a Two-way repeated measures ANOVA with Sidak's multiple comparison test. […] Relative Luminescence Flux in Primary 4T1-Luc2 Immunocompetent Tumors Implanted into the Mammary Fat Pad of BALB/C Mice and Treated with OT-1096 or Vehicle Control. Female BALB/c immunocompetent mice were implanted with 1×10^5 4T1-luc2 murine tumor cells into the mammary fat pad. Upon growth of the tumors between 60-90 mm^3 the animals were selected for imaging. Mice were randomized and enrolled for treatment based on imaging flux values. Mice were treated once daily with 5 mg/kg of either OT-1096 or vehicle control using a 5/2 (five days on, two days off) dosing protocol. Upon days 1, 8, and 15 whole body imaging was performed on the mice to follow tumor cell luminescence. Analysis consists of primary tumor luminescence in mice. Each mouse was normalized to its own baseline luminescence from day 1. […] Data is represented as mean±SEM. Statistical significance (p<0.05) was determined using a Mann-Whitney test. The relative luminescence flux for mice treated with OT-1096 was significant compared to vehicle at day 15. Primary Tumor Growth of TM00098 Patient Derived Xenografts-Triple Negative Breast Cancer in Immunocompetent Humanized NSG Mice (Hu-CD34-NSG) Treated with OT-1096 or Vehicle Control. Female NSG mice were implanted with human CD34+ hematopoietic stem cells from multiple donors and the level of human CD45+ cells were measured in the peripheral blood 12 weeks post engraftment. Mice with >25% human CD45+ cells in the peripheral blood were determined to have a humanized immune system (Hu-CD34-NSG™) mice and were enrolled into the study. The Hu-CD34-NSG mice were implanted with TM00098 patient-derived xenografts (PDX) subcutaneously on the right flank. The TM00098 PDX cancer cells originate from a primary tumor of a patient suffering from a grade 3 TNBC invasive ductal carcinoma. When the tumors reached a volume between 60-120 mm^3 mice were treated with either 10 mg/kg OT-1096 three times a week intravenously (donor 5243 n=5, donor 5252 n=7) or with a vehicle three times a week intravenously (donor 5243 n=3, donor 5252 n=2). In case of tail vein swelling when the test substance or vehicle could not be administered intravenously, Intraperitoneal injection was applied. Tumor volume was measured using a digital caliper two times a week for the duration of the study. Animals that reached a body condition score of ≤2, a body weight loss of ≥20% or a tumor volume >2000 mm^3 were euthanized before study terminus. Animals with ulcerated tumors were also euthanized before study terminus. […]

[1] = system: U-87 MG (a glioblastoma cell line); test: MTT cell viability assay, U-87 MG; assay type: cell-based; details: Homo sapiens, U-87 MG, 72 hrs
Protocol: (§1) MDA-MB-453 (ATCC HTB-131) cells were grown in media with sodium pyruvate. MDA-MB-231 cells (ATCC HTB-26) were grown in DMEM media or L-15 supplemented with Glutamax (1×). U87-MG (ATCC HTB-14) and MDA-MB-468 (ATCC HTB-132) cells were cultured in DMEM supplemented with Glutamax (1×). NB-4 (DSMZ ACC-207) cells were cultured in RPMI 1640.
(§2) Breast cancer and glioblastoma cell lines were plated 4000 cells/well in 96-well plates in the presence of 10% FBS media. The following day cells were treated with various concentrations of the example compounds (0.1% DMSO final) and incubated for 72 hrs. After the incubation an MTT assay was performed to access cell viability. Percent of viability was determined using DMSO vehicle and no cell (blank) controls.

[2] = system: MDA-MB-231 (a breast cancer cell line); test: MTT cell viability assay, MDA-MB-231; assay type: cell-based, human
Protocol: as §1, §2

MDA-MB-231 cells = test: Alamar-Blue cell viability assay; assay type: cell-based, human; details: Homo sapiens, MDA-MB-231, 72 hrs
Protocol: MDA-MB-231 cells were plated 2000 cells/well in 96-well black optical plates in the presence of 10% FBS media containing 25 nM selenite. The following day cells were treated with various concentrations of compounds (0.1% DMSO final) and incubated for 72 hrs. After the incubation Alamar Blue reagent was added to each well and incubated for additional 3 hrs. Fluorescence was read ex:530 nm/em:590 nm, and percent of viability was determined using DMSO vehicle and no cell (blank) controls.

[3] = system: MDA-MB-468 (a breast cancer cell line); test: MTT cell viability assay, MDA-MB-468; assay type: cell-based; details: Homo sapiens, MDA-MB-468, 72 hrs
Protocol: as §1, §2

Structure (SMILES) | IC50 (GR from baker's yeast) [µM] | % TGI (MDA-MB-231 xenografts; 10 mg/kg IV, 5 day on two day off (5/2), 25 days) [%] | mean tumor volume compared to vehicle (MDA-MB-231 xenografts; 10 mg/kg i.v. 5/2, day 25, p<0.05) | IC50 [1] [µM] | IC50 ([2]; Homo sapiens, MDA-MB-231, 72 h) [µM] | IC50 (MDA-MB-231 cells) [µM] | tumor growth inhibition rate (TGI) (MDA-MB-231 xenografts; 10 mg/kg IV, 11 times over 22 days) [%] | final tumor volumes versus vehicle (waterfall plot) (MDA-MB-231 xenografts) | IC50 [3] [µM] | TGI (MDA-MB-231 xenografts; 25 mg/kg intraperitoneally, 25 days) [%] | IC50 ([2]; 72 hrs) [µM] | TGI (MDA-MB-231 xenografts; 25 mg/kg intravenously, 25 days) [%]
CCCCCCCCS(=O)(=O)c1nc(OC)ccc1[N+](=O)[O-] [OT-1096, 6-methoxy-3-nitro-2-(octylsulfonyl)pyridine] | > 30 | 19 | statistically significant |  |  |  |  |  |  |  |  | 
COc1ccc([N+](=O)[O-])c(S(=O)(=O)c2ccc(Cl)cc2)n1 [OT-1000, 2-((4-Chlorophenyl)sulfonyl)-6-methoxy-3-nitropyridine] | > 30 |  |  | 12.7 | 3.14 | 3.53 | 37 | more frequently of lower size than vehicle-treated tumors | 9.21 |  |  | 
NC(=O)c1ccc(I)c([N+](=O)[O-])c1 [Iniparib, 4-Iodo-3-nitrobenzamide, reference compound] | > 30 |  |  | > 33 | > 33 | 54.4 |  |  | > 33 | 9 |  | 
CCS(=O)(=O)c1nc(OC)ccc1[N+](=O)[O-] [OT-1129, 2-(ethylsulfonyl)-6-methoxy-3-nitropyridine] | > 30 |  |  |  |  |  |  | more frequently of lower size than vehicle-treated tumors |  |  | 4.88 | 25
